# Results taken from patent US20250340848A1, “METHODS FOR CHEMICAL REPROGRAMMING AND PLURIPOTENT STEM CELLS” (Peking University, priority 2022, published 2025).
# System: hADSCs
# Test: Three-stage conversion of hADSCs into hCiPSCs (methods of EXAMPLE 1), numbers of hCiPSC colonies
# Assay type: cell-based, human
# Text: FIG. 1 illustrates a schematic of an exemplary method for converting human somatic cells into pluripotent stem cells. The method has 3 stages. During any of the 3 stages, any cell can proliferate and give rise to progeny cells. In stage 1, a first population of cells comprising somatic cells are contacted with a first composition for about 4-12 days. The first population of cells can comprise somatic cells (e.g., fibroblasts or primary human adult adipose derived mesenchymal stromal cells (hADSCs)). During and/or subsequent to contacting the first composition, at least a subset of the cells of the first population of cells or the progenies thereof are converted into a second population of cells. The second population of cells can comprise epithelial-like cells. In stage 2, the second population of cells or the progenies thereof are then contacted with a second composition for about 4-16 days. During and/or subsequent to contacting the second composition, at least a subset of the cells of the second population of cells or the progenies thereof are converted into a third population of cells. The third population of cells can comprise intermediate plastic state cells. In stage 3, the third population of cells or the progenies thereof are contacted with a third composition for about 6-12 days. During and/or subsequent to contacting the third composition, at least a subset of the cells of the third population of cells or the progenies thereof are converted into a fourth population of cells.
# FIG. 2 illustrates a schematic of an exemplary method for converting human fibroblasts into pluripotent stem cells. The method can comprise 3 stages. During any of the 3 stages, any cell can proliferate and give rise to progeny cells. In stage 1, a first population of cells comprising fibroblasts is contacted with a first composition for about 8-10 days. During and/or subsequent to contacting the first composition, at least a subset of the cells of the first population of cells or the progenies thereof are converted into a second population of cells. The second population of cells can comprise epithelial-like cells. The epithelial-like cells express an increased amount of LIN28A, relative to the first population of cells or their progenies. In stage 2, the second population of cells or the progenies thereof are then contacted with a second composition for about 12-16 days. During and/or subsequent to contacting the second composition, at least a subset of the cells of the second population of cells or the progenies thereof are converted into a third population of cells. The third population of cells can comprise intermediate plastic state cells. The intermediate plastic state cells express both SALL4 and LIN28A. In stage 3, the third population of cells or the progenies thereof are contacted with a third composition for about 8-10 days. During and/or subsequent to contacting the third composition, at least a subset of the cells of the third population of cells or the progenies thereof are converted into a fourth population of cells. […] The second conversion medium can then be removed from the cells. […] The third stage 3 medium may allow the pluripotent stem cells or the progenies thereof to proliferate.
# In one experiment, when converting hCiPSCs from somatic cell (e.g., hADSCs), hypoxia with 5% O2 was used in stage 1 conversion. After stage 1 conversion, cells were incubated with 21% O2. The induction medium was changed every 3-4 days. hADSCs were seeded at a density of 1×10^4 cells per well of a 12-well plate in 15% FBS-DMEM medium and would be changed into stage 1 conversion medium the next day. For stage 1 conversion, single layer epithelial-like cells induced from hADSCs would emerge at day 4-6 and approach 100% confluence at day 8-12. Then the medium was changed into stage 2 conversion medium. […]
# [1] = factor removed from the stage 2 conversion medium, FIG. 17
# [2] = factor removed from the stage 1 conversion medium, FIG. 4
# [3] = various combinations supplemented to stage 1 conversion medium comprising CHIR99021, 616452, TTNPB and AKT Kinase Inhibitor, FIG. 5
# [4] = factor removed from the stage 3 conversion medium, FIG. 19
compound,measurement,setting,value
"Nc1ncnc2c1c(I)cn2[C@@H]1O[C@H](CO)[C@@H](O)[C@H]1O [5-ITU, (2R,3R,4S,5R)-2-(4-amino-5-iodopyrrolo[2,3-d]pyrimidin-7-yl)-5-(hydroxymethyl)oxolane-3,4-diol]",increase of the numbers of converted hCiPSCs,"added to the stage 2 conversion medium, relative to medium without it, FIGS. 7A-7B",more than 5 fold
same,numbers of converted hCiPSCs,[1],minimal numbers of converted hCiPSCs
"Cc1cnc(-c2cnc(NCCNc3ccc(C#N)cn3)nc2-c2ccc(Cl)cc2Cl)[nH]1 [CHIR99021, 6-[[2-[[4-(2,4-Dichlorophenyl)-5-(5-methyl-1H-imidazol-2-yl)-2-pyrimidinyl]amino]ethyl]amino]-3-pyridinecarbonitrile]",numbers of converted hCiPSCs,[2],minimal numbers of converted hCiPSCs
same,numbers of converted hCiPSCs,[1],minimal numbers of converted hCiPSCs
"O=C(O)c1ccc2c(c1)nc(Nc1cccc(Cl)c1)c1ccncc12 [CX-4945, 5-(3-chloroanilino)benzo[c][2,6]naphthyridine-8-carboxylic acid]",reprogramming efficiency,"AKTi and CX4945 included in the stage 2 conversion medium (Base), FIG. 18",significantly improved the reprogramming efficiency
"Nc1nccc2c1ncn2[C@@H]1C=C(CO)[C@@H](O)[C@H]1O [DZNep, (1S,2R,5R)-5-(4-Amino-1H-imidazo[4,5-c]pyridin-1-yl)-3-(hydroxymethyl)-3-cyclopentene-1,2-diol]",numbers of converted hCiPSCs,[1],minimal numbers of converted hCiPSCs
same,numbers of converted hCiPSCs,[3],significantly increase the numbers of converted hCiPSCs
"CC(C)N(C[C@H]1O[C@@H](n2cnc3c(N)ncnc32)[C@H](O)[C@@H]1O)[C@H]1C[C@@H](CCc2nc3cc(C(C)(C)C)ccc3[nH]2)C1 [EPZ5676, (2R,3R,4S,5R)-2-(6-amino-9H-purin-9-yl)-5-((((1r,3S)-3-(2-(5-(tert-butyl)-1H-benzo[d]imidazol-2-yl)ethyl)cyclobutyl)(isopropyl)amino)methyl)tetrahydrofuran-3,4-diol]",numbers of converted hCiPSCs,[1],reduced the numbers of converted hCiPSCs
same,numbers of converted hCiPSCs,[3],significantly increase the numbers of converted hCiPSCs
"Cc1cc(NC(=O)c2cccc(NC(=O)/C=C/CN(C)C)c2)ccc1Nc1nccc(-c2cccnc2)n1 [JNKIN8, 3-[[(E)-4-(dimethylamino)but-2-enoyl]amino]-N-[3-methyl-4-[(4-pyridin-3-ylpyrimidin-2-yl)amino]phenyl]benzamide]",numbers of converted hCiPSCs,[1],minimal numbers of converted hCiPSCs
O=C(NOC[C@H](O)CO)c1ccc(F)c(F)c1Nc1ccc(I)cc1F [PD0325901],numbers of converted hCiPSCs,[4],minimal numbers of converted hCiPSCs
"N#CC[C@H](C1CCCC1)n1cc(-c2ncnc3[nH]ccc23)cn1 [Ruxolitinib, (3R)-3-cyclopentyl-3-[4-(7H-pyrrolo[2,3-d]pyrimidin-4-yl)pyrazol-1-yl]propanenitrile]",numbers of converted hCiPSCs,[3],significantly increase the numbers of converted hCiPSCs
"CNC1CCC(N(Cc2cccc(-c3ccncc3)c2)C(=O)c2sc3ccccc3c2Cl)CC1.Cl (stereo not drawn) [SAG, 3-chloro-N-[4-(methylamino)cyclohexyl]-N-[(3-pyridin-4-ylphenyl)methyl]-1-benzothiophene-2-carboxamide;hydrochloride]",numbers of converted hCiPSCs,[3],significantly increase the numbers of converted hCiPSCs
"CN(C)CCOc1ccc(-c2nc(-c3ccc4c(c3)CCC4=NO)c(-c3ccncc3)[nH]2)cc1 [SB590885, 5-[2-[4-[2-(Dimethylamino)ethoxy]phenyl]-5-(4-pyridinyl)-1H-imidazol-4-yl]-2,3-dihydro-1H-inden-1-one oxime]",numbers of converted hCiPSCs,[4],minimal numbers of converted hCiPSCs
"CC(=O)N1CCN([C@H]2CCC[C@@H](NC(=O)c3cc4c(F)ccc(C)c4[nH]3)C2)CC1.O=C(O)C(F)(F)F [SETD2-IN-1, N-[(1R,3S)-3-(4-acetylpiperazin-1-yl)cyclohexyl]-4-fluoro-7-methyl-1H-indole-2-carboxamide;2,2,2-trifluoroacetic acid]",numbers of converted hCiPSCs,"supplemented to the stage 1 conversion medium, FIG. 6",significantly increased the numbers of converted hCiPSCs
"COc1ccc(CCc2nc3cc(-c4c(C)noc4C)ccc3n2C[C@H](C)N2CCOCC2)cc1Cl [SGC-CBP30, 2-[2-(3-chloro-4-methoxyphenyl)ethyl]-5-(3,5-dimethyl-4-isoxazolyl)-1-[(2S)-2-(4-morpholinyl)propyl]-1H-benzimidazole]",numbers of converted hCiPSCs,[1],minimal numbers of converted hCiPSCs
"C/C(=C\c1ccc(C(=O)O)cc1)c1ccc2c(c1)C(C)(C)CCC2(C)C [TTNPB, 4-[(E)-2-(5,6,7,8-Tetrahydro-5,5,8,8-tetramethyl-2-naphthalenyl)-1-propenyl]benzoic acid]",numbers of converted hCiPSCs,[2],minimal numbers of converted hCiPSCs
same,numbers of converted hCiPSCs,[1],minimal numbers of converted hCiPSCs
"CCCC(CCC)C(=O)O [VPA, valproic acid]",numbers of converted hCiPSCs,[4],minimal numbers of converted hCiPSCs
"Cc1cccc(-c2n[nH]cc2-c2ccc3ncccc3n2)n1 [compound 616452, 2-(3-(6-Methylpyridin-2-yl)-1H-pyrazol-4-yl)-1,5-naphthyridine]",numbers of converted hCiPSCs,[2],minimal numbers of converted hCiPSCs
same,numbers of converted hCiPSCs,[1],minimal numbers of converted hCiPSCs
